Data as given in patent publication US9447081B2, “Substituted pyrimidines as pharmaceuticals and insecticides” (SHENYANG SINOCHEM AGROCHEMICALS R&D CO., LTD., priority 2012, dated 2016).

Legend:
[1] = tested on: Green peach aphids (Myzus Persicae Sulzer); assay: Activity against green peach aphid (airbrush foliar spray); type: in vivo; conditions: death rate after 48 h; for pest or weed control at 10 µg/mL / pest or weed control at 100 µg/mL / pest or weed control at 600 µg/mL: Myzus persicae, foliar, 48 h; for pest or weed control at 10 µg/mL: read-out: Insecticidal activity against peach aphid; for pest or weed control at 100 µg/mL / pest or weed control at 600 µg/mL: read-out: Insecticidal activity against peach aphid (control)
Protocol: (§1) Compounds were dissolved in mixed solvent (acetone:methanol=1:1), and diluted to required concentration with water containing 0.1% of tween 80.
(§2) Diamond back moth, armyworm, Green Peach Aphid and carmine spider mite were used as targets and the method of spraying by airbrush was used for determination of insecticidal biassays.
Method: Filter papers were put in culture dishes (Diameter=6 cm), and water was dripped on filter papers for preserving moisture. Green peach aphids (Myzus Persicae Sulzer) were maintained on cabbage. Leaves (Diameter=3 cm) of approximately 15-30 aphids were put in the culture dishes. Bioactivity tests were used the method of Airbrush Foliar Spray, pressure=10 psi (0.7 kg/cm2), spray volume=0.5 mL. The studies were conducted at three constant temperatures 25±1 C. in incubator cabinets with 60±5% RH. Survey the survival aphids after 48 h and calculate the death rates.

cucumber downy mildew = assay: Protectant activity in vivo (whole plant), cucumber downy mildew; conditions: for pest or weed control at 100 µg/mL / pest or weed control at 400 µg/mL / pest or weed control at 25 µg/mL / pest or weed control at 50 µg/mL: Cucumis sativus, 168 h, read-out: protectant activity against cucumber downy mildew
Protocol: (§3) The method is as followed: The whole plant is used in this test. The compound is dissolved in a proper solvent to get mother solution. The proper solvent is selected from acetone, methanol, DMF and so on according to their dissolving capability to the sample. […] The testing solution is sprayed to the host plant by a special plant sprayer. The plant is inoculated with fungus after 24 hours. According to the infecting characteristic of fungus, the plant is stored in a humidity chamber and then transferred into greenhouse after infection is finished. And the other plants are placed in greenhouse directly. The activity of compound is obtained by eyeballing after 7 days in common.

diamond back moth = assay: Insecticidal activity against diamond back moth (airbrush spray); type: in vivo; conditions: mortality after 72 h; for pest or weed control at 600 µg/mL / pest or weed control at 100 µg/mL: read-out: control of the second instar larvae of diamond back moth; for pest or weed control at 100 µg/mL: 100 mg/L
Protocol: as §1, §2
(§4) The method of spraying by airbrush: The cabbage leaves were made into plates of 2 cm diameter by use of punch. A test solution (0.5 ml) was sprayed by airbrush at the pressure of 0.7 kg/cm^2 to both sides of every plate. 10 Second instar larvae were put into the petri-dishes after the leaf disc air-dried and 3 replicates were set for each treatment. Then the insects were maintained in observation room (25° C., 60˜70% R.H.). Scores were conducted and mortalities were calculated after 72 h.

rice blast = assay: microbe, parasite or virus in culture; type: cell-based; conditions: for inhibition rate against rice blast: in vitro, 24 hours; for inhibition at 25 µg/mL: Pyricularia oryzae, 24 h, read-out: inhibition rate against rice blast
wheat powdery mildew = assay: Protectant activity in vivo (whole plant), wheat powdery mildew
Protocol: as §3

corn rust = assay: Protectant activity in vivo (whole plant), corn rust; conditions: for pest or weed control at 6.25 µg/mL / pest or weed control at 25 µg/mL / pest or weed control at 100 µg/mL / pest or weed control at 400 µg/mL: Zea mays, 168 h, read-out: protectant activity against corn rust; for pest or weed control at 6.25 µg/mL: 6.25 mg/L
Protocol: as §3

carmine spider mite = assay: Acaricidal activity against carmine spider mite (airbrush spray); type: in vivo; conditions: 100 mg/L, adults, mortality after 72 hrs; for pest or weed control at 100 µg/mL: Tetranychus cinnabarinus
Protocol: as §1, §2
Method: Broadbean shoots with two true leaves in pot were taken, the healthy adults of carmine spider mite were inoculated to the leaves. The adults were counted and then sprayed with airbrush at the pressure of 0.7 kg/cm^2 and at dose of 0.5 ml. 3 replicates were set for each treatment. And then they were maintained in standard observation room. Scores were conducted and mortalities were calculated after 72 hrs.

armyworm = assay: Insecticidal activity against armyworm (airbrush spray); type: in vivo; conditions: second instar larvae, mortality after 72 h
Protocol: as §1, §2
as §4, with “corn” for “cabbage”

cucumber gray mold = assay: Fungicidal activity in vitro (96-well, High Through Put), cucumber gray mold; type: cell-based; conditions: 25 mg/L, 24 hours, read-out: inhibition rate against cucumber gray mold
[2] = Triticum aestivum, 168 h, 25 mg/L, read-out: protectant activity against wheat powdery mildew
[3] = Triticum aestivum, 168 h, 100 mg/L, read-out: protectant activity against wheat powdery mildew
[4] = Triticum aestivum, 168 h, 400 mg/L, read-out: protectant activity against wheat powdery mildew

Row | SMILES | protectant activity against cucumber downy mildew (cucumber downy mildew; 25 mg/L) | protectant activity against cucumber downy mildew (cucumber downy mildew; 50 mg/L) | protectant activity against cucumber downy mildew (cucumber downy mildew; 100 mg/L) | protectant activity against cucumber downy mildew (cucumber downy mildew; 400 mg/L) | pest or weed control at 600 µg/mL (diamond back moth; 600 mg/L) | inhibition at 25 µg/mL (rice blast) | pest or weed control at 100 µg/mL (corn rust; 100 mg/L) | pest or weed control at 400 µg/mL (corn rust; 400 mg/L) | pest or weed control at 25 µg/mL (wheat powdery mildew; [2]) | pest or weed control at 100 µg/mL (wheat powdery mildew; [3]) | pest or weed control at 400 µg/mL (wheat powdery mildew; [4]) | pest or weed control at 100 µg/mL (cucumber downy mildew; 100 mg/L) | pest or weed control at 400 µg/mL (cucumber downy mildew; 400 mg/L) | pest or weed control at 100 µg/mL (carmine spider mite) | pest or weed control at 600 µg/mL (armyworm; 600 mg/L) | pest or weed control at 10 µg/mL ([1]; 10 mg/L) | pest or weed control at 100 µg/mL ([1]; 100 mg/L) | pest or weed control at 600 µg/mL ([1]; 600 mg/L) | further results
1 | Cc1ncnc(NCCc2ccc3c(c2)OCO3)c1Cl [Compound 1452] | 0% | 0% | 0% | 95% | 80% |  |  |  |  |  |  |  |  |  |  |  |  |  | Insecticidal activity against peach aphid (control) ([1]; 600 mg/L): 90%
2 | Clc1ncnc(NCCc2ccc3c(c2)OCO3)c1Cl [Compound 2] | 100% | 100% | 100% | 100% |  |  |  |  |  |  |  |  |  |  |  |  |  |  | inhibition rate against rice blast (rice blast; 2.8 mg/L): 80%; inhibition rate against rice blast (rice blast; 8.3 mg/L): 100%; inhibition rate against rice blast (rice blast; 25 mg/L): 100%; protectant activity against wheat powdery mildew (wheat powdery mildew; 400 mg/L): 100%
3 | FC(F)c1ncnc(NCc2ccc3c(c2)OCO3)c1Cl [CK9] |  |  |  |  | 0% | 0% | 25% | 80% | 0% | 10% | 70% | 0% | 50% | 0% | 0% |  |  |  | pest or weed control at 6.25 µg/mL (corn rust): 0%; pest or weed control at 25 µg/mL (corn rust; 25 mg/L): 0%
4 | Cc1ncnc(NCc2ccc3c(c2)OCO3)c1Cl [CK2] |  |  |  |  | 20% | 0% | 0% | 75% | 40% | 60% | 60% | 60% | 100% | 0% | 14% | 0% | 12% | 20% | pest or weed control at 6.25 µg/mL (wheat powdery mildew; Triticum aestivum, 168 h, 6.25 mg/L, read-out: protectant activity against wheat powdery mildew): 0%; pest or weed control at 25 µg/mL (cucumber downy mildew; 25 mg/L): 0%; pest or weed control at 50 µg/mL (cucumber downy mildew; 50 mg/L): 40%; pest or weed control at 100 µg/mL (armyworm; 100 mg/L): 0%; pest or weed control at 100 µg/mL (diamond back moth): 5%
5 | COc1ccc(CCNc2ncnc(C(F)(F)F)c2Cl)cc1OC [CK7] |  |  |  |  |  | 0% | 0% | 70% | 0% | 30% | 80% |  |  |  | 0% | 0% | 37% | 66% | inhibition at 25 µg/mL (cucumber gray mold): 0%
6 | COc1ccc(CNc2ncnc(C(F)F)c2Cl)cc1OC [CK6] |  |  |  |  |  | 0% |  |  | 0% | 25% | 85% | 0% | 80% | 0% | 0% |  |  | 0% | pest or weed control at 100 µg/mL (diamond back moth): 0%
7 | COc1ccc(CCNc2ncnc(C(F)F)c2Cl)cc1OC [CK5] |  |  |  |  | 40% | 0% |  |  | 0% | 20% | 100% |  |  | 0% | 0% | 8% | 35% | 100% | pest or weed control at 100 µg/mL (diamond back moth): 20%
8 | ClCc1ncnc(NCc2ccc3c(c2)OCO3)c1Cl [CK12] |  |  |  |  | 0% |  | 0% | 40% |  |  | 0% | 0% | 50% | 0% | 0% | 0% | 0% | 10% | 
9 | Cc1ncnc(NCCc2ccc3c(c2)OCO3)c1Cl [Compound 1451] |  |  |  |  |  |  |  | 80% |  |  |  | 0% | 100% |  |  |  |  | 100% | pest or weed control at 25 µg/mL (cucumber downy mildew; 25 mg/L): 0%; pest or weed control at 50 µg/mL (cucumber downy mildew; 50 mg/L): 0%
10 | FC(F)(F)c1ncnc(NCCc2ccc3c(c2)OCO3)c1Cl [Compound 20] | 20% | 100% | 100% | 100% |  |  |  |  |  |  |  |  |  |  |  |  |  |  | 
11 | CCc1ncnc(NCCc2ccc3c(c2)OCO3)c1Cl [Compound 1465] |  |  |  |  | 100% |  | 95% | 100% |  |  |  |  |  |  |  | 0% | 70% | 100% | pest or weed control at 6.25 µg/mL (corn rust): 0%; pest or weed control at 25 µg/mL (corn rust; 25 mg/L): 50%
12 | FC(F)c1ncnc(NCCc2ccc3c(c2)OCO3)c1Cl [Compound 18] | 100% | 100% | 100% | 100% |  |  |  |  |  |  |  |  |  |  |  |  |  |  | inhibition rate against rice blast (rice blast; 0.9 mg/L): 80%; inhibition rate against rice blast (rice blast; 2.8 mg/L): 80%; inhibition rate against rice blast (rice blast; 8.3 mg/L): 100%; inhibition rate against rice blast (rice blast; 25 mg/L): 100%; Insecticidal activity against peach aphid ([1]; 10 mg/L): 68%; Insecticidal activity against peach aphid (control) ([1]; 100 mg/L): 100%; Insecticidal activity against peach aphid (control) ([1]; 600 mg/L): 100%; protectant activity against corn rust (corn rust; 25 mg/L): 98%; protectant activity against corn rust (corn rust; 100 mg/L): 100%; protectant activity against corn rust (corn rust; 400 mg/L): 100%; protectant activity against wheat powdery mildew (wheat powdery mildew; 6.25 mg/L): 100%; protectant activity against wheat powdery mildew (wheat powdery mildew; 25 mg/L): 100%; protectant activity against wheat powdery mildew (wheat powdery mildew; 100 mg/L): 100%; protectant activity against wheat powdery mildew (wheat powdery mildew; 400 mg/L): 100%; protectant activity against cucumber downy mildew (cucumber downy mildew; 12.5 mg/L): 80%; control against carmine spider mite (carmine spider mite): 90%; control of the armyworm (armyworm; 600 mg/L): 100%; control of the second instar larvae of diamond back moth (diamond back moth; 600 mg/L): 100%
13 | CCc1ncnc(NCc2ccc3c(c2)OCO3)c1Cl [CK1] |  |  |  |  |  | 0% | 20% | 70% |  |  | 0% | 30% | 100% | 39% | 0% | 0% | 30% | 70% | pest or weed control at 25 µg/mL (corn rust; 25 mg/L): 0%; pest or weed control at 25 µg/mL (cucumber downy mildew; 25 mg/L): 0%; pest or weed control at 50 µg/mL (cucumber downy mildew; 50 mg/L): 20%
